# pIC50: −log10 of the molar value.
# Molecular target: B-Raf (V600E)-kinase (Homo sapiens (Human), UniProt P15056, V600E)
# Assay: Kinase test B-Raf (V600E)
# Assay type: biochemical
# Details: 250 μM ATP, biotinylated MEK1 substrate
# Method: In a dilution series 10 μL of test substance solution are placed in a multiwell plate. The dilution series is selected so that generally a range of concentrations of 2 μM to 0.128 nM or 0.017 nM is covered. If necessary the initial concentration of 2 μM is changed to 50 μM, 10 μM or 0.4 μM or 0.2857 μM and further dilution is carried out accordingly. The final concentration of DMSO is 5%. 10 μL of the B-Raf (V600E)-kinase solution are pipetted in (containing 0.5 ng B-Raf (V600E)-kinase in 20 mM Tris-HCl pH 7.5, 0.1 mM EDTA, 0.1 mM EGTA, 0.286 mM sodium orthovanadate, 10% glycerol, 1 mg/mL bovine serum albumin, 1 mM dithiothreitol) and the mixture is incubated for 1 h at RT under with shaking. The kinase reaction is started by the addition of 20 μL ATP solution [final concentration: 250 μM ATP, 30 mM Tris-HCl pH 7.5, 0.02% Brij, 0.2 mM sodium orthovanadate, 10 mM magnesium acetate, phosphatase cocktail (Sigma, #P2850, dilution recommended by the manufacturer), 0.1 mM EGTA] and 10 μL MEK1 solution [containing 50 ng biotinylated MEK1 (prepared from purified MEK1 according to standard procedure, e.g. with EZ-Link Sulpho-NHS-LC-Biotin reagent, Pierce, #21335) in 50 mM Hepes pH 7.5, 150 mM NaCl, 10% glycerol, 0.02% Brij-35, 0.2 mM PMSF, 0.2 mM benzamidine] and carried out for 60 min at RT with constant shaking. The reaction is stopped by the addition of 12 μL of a 100 mM EDTA solution and incubation is continued for a further 5 min. 55 μL of the reaction solution are transferred into a streptavidin-coated plate (e.g. Streptawell HighBond, Roche, #11989685001) and shaken gently for 1 h at RT, in order to bind biotinylated MEK1 to the plate. After elimination of the liquid the plate is washed five times with 200 μL of 1×PBS and 100 μL solution of primary antibody plus europium-labelled secondary antibody [Anti Phospho-MEK (Ser217/221), Cell Signaling, #9121 and Eu-N1 labeled goat-anti-rabbit antibody, Perkin Elmer, #AD0105], the primary antibody is diluted 1:2000 and the secondary antibody is diluted to 0.4-0.5 μg/mL in Delfia Assay Buffer (Perkin Elmer, #1244-111). After 1 h shaking at RT the solution is poured away and washed five times with 200 μL Delfia Wash Buffer (Perkin Elmer, #4010-0010/#1244-114). After the addition of 200 μL Enhancement Solution (Perkin Elmer, #4001-0010/#1244-105) the mixture is shaken for 10 min at RT and then measured in a Wallac Victor using the program “Delfia Time Resolved Fluorescence (Europium)”. IC50 values are obtained from these dosage-activity curves using a software program (GraphPadPrizm).
# Sequence of B-Raf (V600E)-kinase (P15056 whole entry V600E): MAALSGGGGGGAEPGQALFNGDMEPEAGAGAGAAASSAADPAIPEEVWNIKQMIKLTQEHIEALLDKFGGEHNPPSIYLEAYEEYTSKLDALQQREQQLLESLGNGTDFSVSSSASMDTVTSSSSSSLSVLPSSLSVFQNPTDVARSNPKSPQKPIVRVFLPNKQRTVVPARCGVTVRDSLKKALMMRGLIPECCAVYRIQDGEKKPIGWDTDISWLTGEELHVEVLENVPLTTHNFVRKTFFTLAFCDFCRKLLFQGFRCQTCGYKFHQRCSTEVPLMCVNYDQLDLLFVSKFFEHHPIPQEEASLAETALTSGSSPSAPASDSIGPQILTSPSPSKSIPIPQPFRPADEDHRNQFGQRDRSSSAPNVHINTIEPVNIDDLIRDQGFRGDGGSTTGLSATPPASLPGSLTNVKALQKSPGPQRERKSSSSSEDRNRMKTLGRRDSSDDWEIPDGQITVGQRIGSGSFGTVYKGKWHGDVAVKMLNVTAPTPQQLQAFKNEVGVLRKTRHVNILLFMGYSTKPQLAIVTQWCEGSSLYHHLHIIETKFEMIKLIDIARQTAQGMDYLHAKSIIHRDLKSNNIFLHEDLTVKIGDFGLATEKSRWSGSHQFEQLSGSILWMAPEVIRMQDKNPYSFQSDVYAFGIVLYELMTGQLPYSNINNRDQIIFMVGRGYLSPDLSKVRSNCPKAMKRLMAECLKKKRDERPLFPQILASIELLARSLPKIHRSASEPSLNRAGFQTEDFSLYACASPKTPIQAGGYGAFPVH
row,SMILES,pIC50
1,COc1c(NC(=O)c2ccc(C)c(Nc3ncnc4ccc(N5CCN(C)CC5)nc34)c2)cc(C(C)(C)C)cc1NS(C)(=O)=O [III-18],6.65
2,Cc1ccc(C(=O)Nc2cc(CN3CCCC3)cc(C(F)(F)F)c2)cc1Nc1ncnc2ccc(N3CCOCC3)nc12 [III-9],8.40
3,COCCN1CCN(c2ccc3ncnc(Sc4cc(C(=O)Nc5cc(N6CCN(C)CC6)cc(C(F)(F)F)c5)ccc4C)c3n2)CC1 [III-53],6.72
4,Cc1ccc(C(=O)Nc2cc(N3CCCN(C)CC3)cc(C(F)(F)F)c2)cc1Nc1ncnc2ccc(N3CCOCC3)nc12 [III-8],8.30
5,Cc1ccc(C(=O)Nc2cc(C(C)(C)C)on2)cc1Nc1ncnc2ccc(N(C)C)nc12 [III-17],8.05
6,COc1ccc(NC(=O)c2ccc(C)c(Nc3ncnc4ccc(N5CCN(CC6CCN(C)CC6)CC5)nc34)c2)cc1C(F)(F)F [III-15],7.59
7,Cc1ccc(C(=O)N2CCOCC2)cc1Nc1ncnc2cnc(N3CCOCC3)cc12 [I-4],< 5.85
8,COc1c(NC(=O)c2ccc(C)c(Nc3ncnc4ccc(C)nc34)c2)cc(C(C)(C)C)cc1NS(C)(=O)=O [III-28],6.37
9,COc1c(NC(=O)c2ccc(C)c(Nc3ncnc4ccc(N5CCC(N6CCOCC6)C5)nc34)c2)cc(C(C)(C)C)cc1NS(C)(=O)=O (stereo not shown) [III-26],5.84
10,Cc1ccc(C(=O)Nc2cc(C(C)(C)C)n[nH]2)cc1Nc1ncnc2ccc(N3CCOCC3)nc12 [III-5],8.15
11,COc1c(NC(=O)c2ccc(C)c(Nc3ncnc4ccc(NC5CCOC5)nc34)c2)cc(C(C)(C)C)cc1NS(C)(=O)=O (stereo not shown) [III-21],7.52
12,COc1c(NC(=O)c2ccc(C)c(Nc3ncnc4ccc(N5CCN(CCN6CCOCC6)CC5)nc34)c2)cc(C(C)(C)C)cc1NS(C)(=O)=O [III-25],6.20
13,COc1c(NC(=O)c2ccc(C)c(Nc3ncnc4ccc(C5=CCNCC5)nc34)c2)cc(C(C)(C)C)cc1NS(C)(=O)=O [III-27],7.00
14,COc1c(NC(=O)c2ccc(C)c(Nc3ncnc4ccc(C5CCNCC5)nc34)c2)cc(C(C)(C)C)cc1NS(C)(=O)=O [III-31],7.15
15,COc1ccc(NC(=O)c2ccc(C)c(Nc3ncnc4ccc(N5CCOCC5)nc34)c2)cc1C(F)(F)F [III-1],7.96
16,COc1ccc(NC(=O)c2ccc(C)c(Nc3ncnc4ccc(N(C)C)nc34)c2)cc1C(F)(F)F [III-16],7.36
17,COc1c(NC(=O)c2ccc(C)c(Nc3ncnc4ccc(C5CCNC5)nc34)c2)cc(C(C)(C)C)cc1NS(C)(=O)=O (stereo not shown) [III-39],6.82
18,CCN1CCC(c2ccc3ncnc(Nc4cc(C(=O)Nc5cc(C(C)(C)C)cc(NS(C)(=O)=O)c5OC)ccc4C)c3n2)CC1 [III-33],6.73
19,COc1c(NC(=O)c2ccc(C)c(Nc3ncnc4ccc(CC5CCN(C)CC5)nc34)c2)cc(C(C)(C)C)cc1NS(C)(=O)=O [III-44],6.44
20,COc1c(NC(=O)c2ccc(C)c(Nc3ncnc4ccc(C5CCN(C)CC5)nc34)c2)cc(C(C)(C)C)cc1NS(C)(=O)=O [III-32],6.82
21,COCCN1CCC(Cc2ccc3ncnc(Nc4cc(C(=O)Nc5cc(C(C)(C)C)cc(NS(C)(=O)=O)c5OC)ccc4C)c3n2)CC1 [III-49],6.30
22,Cc1ccc(C(=O)Nc2cc(C(C)(C)C)nn2C)cc1Nc1ncnc2ccc(N3CCOCC3)nc12 [III-6],7.82
23,COc1c(NC(=O)c2ccc(C)c(Nc3ncnc4ccc(C5CCCNC5)nc34)c2)cc(C(C)(C)C)cc1NS(C)(=O)=O (stereo not shown) [III-42],6.64
24,COCCN1CCN(c2ccc3ncnc(Nc4cc(C(=O)Nc5ccc(OC)c(C(F)(F)F)c5)ccc4C)c3n2)CC1 [III-14],6.85
25,Cc1ccc(C(=O)Nc2cc(C(C)(C)C)on2)cc1Nc1ncnc2ccc(N3CCOCC3)nc12 [III-2],7.49
26,Cc1ccc(C(=O)Nc2cc(C(C)(C)C)on2)cc1Nc1ncnc2ccc(N3CCN(C)CC3)nc12 [III-10],7.92
27,COc1c(NC(=O)c2ccc(C)c(Nc3ncnc4ccc(N5CCOCC5)nc34)c2)cc(C(C)(C)C)cc1NS(C)(=O)=O [III-24],7.30
28,CCCN1CCC(Cc2ccc3ncnc(Nc4cc(C(=O)Nc5cc(C(C)(C)C)cc(NS(C)(=O)=O)c5OC)ccc4C)c3n2)CC1 [III-48],6.23

row,SMILES,pIC50
1,COCCN1CCN(c2ccc3ncnc(Nc4cc(C(=O)Nc5cc(C(C)(C)C)on5)ccc4C)c3n2)CC1 [III-11],7.46
2,COCCN1CCC(c2ccc3ncnc(Nc4cc(C(=O)Nc5cc(C(C)(C)C)cc(NS(C)(=O)=O)c5OC)ccc4C)c3n2)C1 (stereo not shown) [III-41],6.50
3,Cc1ccc(C(=O)n2nc(C(C)(C)C)cc2N)cc1Nc1ncnc2ccc(N3CCOCC3)nc12 [III-4],5.69
4,Cc1ccc(NC(=O)c2cccc(C(C)(C)C#N)c2)cc1Nc1ncnc2ccc(N3CCOCC3)nc12 [IV-1],8.40
5,COCCN1CCN(c2ccc3ncnc(Sc4cc(C(=O)Nc5cc(C(C)(C)C)on5)ccc4C)c3n2)CC1 [III-54],6.57
6,COc1c(NC(=O)c2ccc(C)c(Nc3ncnc4ccc(CC5CCN(C(C)C)CC5)nc34)c2)cc(C(C)(C)C)cc1NS(C)(=O)=O [III-46],6.26
7,COCCN1CCC(c2ccc3ncnc(Nc4cc(C(=O)Nc5cc(C(C)(C)C)cc(NS(C)(=O)=O)c5OC)ccc4C)c3n2)CC1 [III-36],6.35
8,COc1c(NC(=O)c2ccc(C)c(Nc3ncnc4ccc(C5=CCN(C(C)C)CC5)nc34)c2)cc(C(C)(C)C)cc1NS(C)(=O)=O [III-29],6.53
9,COCCN1CCN(c2ccc3ncnc(Sc4cc(C(=O)Nc5cc(C(C)(C)C)cc(NS(C)(=O)=O)c5OC)ccc4C)c3n2)CC1 [III-55],5.79
10,Cc1ccc(NC(=O)c2cccc(C(C)(C)C#N)c2)cc1Nc1ncnc2ccc(N3CCN(C)CC3)nc12 [IV-2],8.10
11,COc1ccc(NC(=O)c2ccc(C)c(Nc3ncnc4ccc(N5CCN(C)CC5)nc34)c2)cc1C(F)(F)F [III-13],7.24
12,COc1c(NC(=O)c2ccc(C)c(Nc3ncnc4ccc(CC5CNCCOC5)nc34)c2)cc(C(C)(C)C)cc1NS(C)(=O)=O (stereo not shown) [III-43],6.67
13,COc1ccc(NC(=O)c2ccc(C)c(Nc3ncnc4cnc(N5CCCC5)cc34)c2)cc1C(F)(F)F [I-3],6.50
14,COc1c(NC(=O)c2ccc(C)c(Nc3ncnc4ccc(CC5CCN(CC6CC6)CC5)nc34)c2)cc(C(C)(C)C)cc1NS(C)(=O)=O [III-47],6.30
15,COc1c(NC(=O)c2ccc(C)c(Nc3ncnc4ccc(C5CCN(C(C)C)CC5)nc34)c2)cc(C(C)(C)C)cc1NS(C)(=O)=O [III-34],6.59
16,COc1c(NC(=O)c2ccc(C)c(Nc3ncnc4ccc(CC5CCNCC5)nc34)c2)cc(C(C)(C)C)cc1NS(C)(=O)=O [III-37],6.77
17,COc1c(NC(=O)c2ccc(C)c(Nc3ncnc4ccc(C5=CCNC5)nc34)c2)cc(C(C)(C)C)cc1NS(C)(=O)=O [III-38],6.55
18,CCN1CCN(c2ccc3ncnc(Nc4cc(C(=O)Nc5cc(C(C)(C)C)cc(NS(C)(=O)=O)c5OC)ccc4C)c3n2)CC1 [III-23],6.29
19,COc1c(NC(=O)c2ccc(C)c(Nc3ncnc4ccc(C5=CCN(C)CC5)nc34)c2)cc(C(C)(C)C)cc1NS(C)(=O)=O [III-30],6.46
20,COCCN1CCN(c2ccc3ncnc(Nc4cc(NC(=O)c5cccc(C(C)(C)C#N)c5)ccc4C)c3n2)CC1 [IV-3],7.74
21,COc1c(NC(=O)c2ccc(C)c(Nc3ncnc4ccc(C5CCN(C)C5)nc34)c2)cc(C(C)(C)C)cc1NS(C)(=O)=O (stereo not shown) [III-40],6.54
22,COc1ccc(NC(=O)c2ccc(C)c(Nc3ncnc4cnc(N5CCN(C)CC5)cc34)c2)cc1C(F)(F)F [I-2],6.65
23,Cc1ccc(C(=O)Nc2cccc(C(C)(C)C#N)c2)cc1Nc1ncnc2ccc(N3CCOCC3)nc12 [III-3],8.15
24,COc1c(NC(=O)c2ccc(C)c(Nc3ncnc4ccc(N(C)C5CCOC5)nc34)c2)cc(C(C)(C)C)cc1NS(C)(=O)=O (stereo not shown) [III-20],7.62
25,CCOCCN1CCC(Cc2ccc3ncnc(Nc4cc(C(=O)Nc5cc(C(C)(C)C)cc(NS(C)(=O)=O)c5OC)ccc4C)c3n2)CC1 [III-50],6.32
26,Cc1ccc(C(=O)Nc2cc(C(C)(C)C)on2)cc1Nc1ncnc2ccc(C3=CCNCC3)nc12 [III-51],7.64
27,CCN1CCC(Cc2ccc3ncnc(Nc4cc(C(=O)Nc5cc(C(C)(C)C)cc(NS(C)(=O)=O)c5OC)ccc4C)c3n2)CC1 [III-45],6.28

# Reference: patent US8569316B2, “Pyrimido [5,4-D] pyrimidine derivatives for the inhibition of tyrosine kinases” (Boehringer Ingelheim International GmbH, priority 2009, dated 2013)
